Assay results as given in patent US10420787B2, “Crystal-water-free calcium dibutyryladenosine cyclophosphate crystal form and preparation method and application thereof” (SPH NO.1 BIOCHEMICAL & PHARMACEUTICAL CO., LTD., priority 2014, dated 2019).
“And” between values parts separate entries of the source, which are not always exact repeats. Equal entries are not always repeated.

Tests used:
[1] = Hygrothermal acceleration stability test (30° C., relative humidity 75±5%, 6 months); assay type: physicochemical; settings: RH 75±5%; for Related substances (%): HPLC
Source text: (§1) Chromatographic conditions include:
(§2) HPLC purity is detected according to the method in the following embodiments.

[2] = Long-term observation stability test (16° C., relative humidity 60±5%, 12 months); assay type: physicochemical; settings: RH 60±5%; for Related substances (%): HPLC
Source text: as §1, §2

| Compound | Related substances (%) ([1]; 0 months) | Content (%) ([1]; 1 month) | Related substances (%) ([1]; 1 month) | Content (%) ([1]; 2 months) | Related substances (%) ([1]; 2 months) | Content (%) ([1]; 3 months) | Related substances (%) ([1]; 3 months) | Content (%) ([1]; 6 months) | Related substances (%) ([1]; 6 months) | Content (%) ([2]; 0 months) | Related substances (%) ([2]; 0 months) | Content (%) ([2]; 3 months) | Related substances (%) ([2]; 3 months) | Related substances (%) ([2]; 6 months) | Content (%) ([2]; 9 months) | Related substances (%) ([2]; 9 months) | Content (%) ([2]; 12 months) | Related substances (%) ([2]; 12 months) | Content (%) ([1]; 0 months) | Content (%) ([2]; 6 months) |
| --- | --- | --- | --- | --- | --- | --- | --- | --- | --- | --- | --- | --- | --- | --- | --- | --- | --- | --- | --- | --- |
| CCCC(=O)Nc1ncnc2c1ncn2[C@@H]1O[C@@H]2COP(=O)([O-])O[C@H]2[C@H]1OC(=O)CCC.CCCC(=O)Nc1ncnc2c1ncn2[C@@H]1O[C@@H]2COP(=O)([O-])O[C@H]2[C@H]1OC(=O)CCC.[Ca+2] [Anhydrouscalcium dibutyryladenosine cyclophosphate solids] [anhydrous calcium dibutyryladenosine cyclophosphate, reference compound] | 4.3% | 94.8% | 4.9% | 94.2% | 5.5% | 93.5% | 6.0% | 93.0% | 6.7% | 954% | 4.3% | 95.0% | 4.6% | 4.8% | 94.4% | 5.2% | 94.1% | 5.4% | – | – |
| calcium dibutyryladenosine cyclophosphate 2.3 hydrates [DBC-Ca•2.3H2O crystals, reference compound] | 5.3% | 90.1% | 5.5% | 89.8% | 5.8% | 89.7% | 5.9% | 89.3% | 6.1% | 90.2% | 5.3% | 90.0% | 5.3% | 5.5% | 89.7% | 5.6% | 89.6% | 5.9% | 90.2% | 89.9% |
| CCCC(=O)Nc1ncnc2c1ncn2[C@@H]1O[C@@H]2COP(=O)([O-])O[C@H]2[C@H]1OC(=O)CCC.CCCC(=O)Nc1ncnc2c1ncn2[C@@H]1O[C@@H]2COP(=O)([O-])O[C@H]2[C@H]1OC(=O)CCC.[Ca+2] [calcium dibutyryladenosine cyclophosphate] | 3.8% and 4.1% and 4.0% | 95.3% and 95.8% and 95.0% | 3.9% and 4.0% and 4.1% | 95.1% and 95.4% | 4.0% and 4.1% | 94.9% and 95.0% and 94.7% | 4.2% and 4.3% | 94.5% and 94.7% and 94.3% | 4.5% and 4.7% and 4.6% | 95.8% and 96.2% and 95.2% | 3.8% and 4.1% and 4.0% | 95.5% and 96.1% and 95.3% | 3.7% and 4.2% and 4.1% | 3.8% and 4.1% and 4.3% | 95.5% and 95.9% and 95.0% | 3.7% and 4.0% and 4.2% | 95.3% and 95.8% and 94.9% | 4.0% and 4.3% and 4.4% | 95.8% and 96.2% and 95.2% | 95.6% and 96.0% and 95.1% |
